In patent US12043632B2, “6-heteroaryloxy benzimidazoles and azabenzimidazoles as JAK2 inhibitors” (Ajax Therapeutics, Inc., priority 2020, dated 2024):

target: T1, JAK2 (JH1domain-catalytic, Y1007F,Y1008F) kinase (Homo sapiens, UniProt O60674, Y1007F/Y1008F); test: JAK2 JH1 Domain Binding Assay; conditions: qPCR readout
T1 construct: JAK2 (JH1domain-catalytic, Y1007F,Y1008F) kinase was expressed as N-terminal fusion; made in house; host or cells: transiently transfected HEK293 cells
T1 sequence (O60674 849-1124 Y1007F/Y1008F limits assumed): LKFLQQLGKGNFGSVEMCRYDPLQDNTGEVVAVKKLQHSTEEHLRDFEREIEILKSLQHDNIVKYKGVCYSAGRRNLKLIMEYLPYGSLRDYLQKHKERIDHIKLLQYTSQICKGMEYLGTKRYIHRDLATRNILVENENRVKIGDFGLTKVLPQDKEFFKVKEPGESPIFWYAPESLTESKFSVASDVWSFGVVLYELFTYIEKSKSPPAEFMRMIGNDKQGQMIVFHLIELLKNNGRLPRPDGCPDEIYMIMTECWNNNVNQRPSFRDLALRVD

Row | SMILES | Kd [nM]
1 | Cn1c(Nc2cc(C(F)(F)F)cn([C@H]3C[C@@H](O)C3)c2=O)nc2ncc(Oc3cnn4ccccc34)c(C#N)c21 [Example I-167, cis-2-((1-(3-hydroxycyclobutyl)-2-oxo-5-(trifluoromethyl)-1,2-dihydropyridin-3-yl)amino)-1-methyl-6-(pyrazolo[1,5-a]pyridin-3-yloxy)-1H-imidazo[4,5-b]pyridine-7-carbonitrile] | < 10
2 | Cn1c(Nc2cc(C(C)(C)C)n(C3COC3)n2)nc2ncc(Oc3cnn4ccncc34)c(C#N)c21 [Example I-168, 2-((5-(tert-butyl)-1-(oxetan-3-yl)-1H-pyrazol-3-yl)amino)-1-methyl-6-(pyrazolo[1,5-a]pyrazin-3-yloxy)-1H-imidazo[4,5-b]pyridine-7-carbonitrile] | 10 to 50
3 | CN1CC[C@H](n2nc(Nc3nc4ncc(Oc5cnn6cc(F)ccc56)c(Cl)c4n3C)cc2C(C)(C)C)C1 [Example I-169, (S)—N-(5-(tert-butyl)-1-(1-methylpyrrolidin-3-yl)-1H-pyrazol-3-yl)-7-chloro-6-((6-fluoropyrazolo[1,5-a]pyridin-3-yl)oxy)-1-methyl-1H-imidazo[4,5-b]pyridin-2-amine] | < 10
4 | CN1CC[C@@H](n2nc(Nc3nc4ncc(Oc5cnn6cc(F)ccc56)c(Cl)c4n3C)cc2C(C)(C)C)C1 [Example I-170] | 10 to 50
5 | CNc1nccn2ncc(Oc3cnc4nc(Nc5cc(C(F)(F)F)cn(-c6cnn(C)c6)c5=O)n(C)c4c3Cl)c12 [Example I-171, 3-((7-chloro-1-methyl-6-((4-(methylamino)pyrazolo[1,5-a]pyrazin-3-yl)oxy)-1H-imidazo[4,5-b]pyridin-2-yl)amino)-1-(1-methyl-1H-pyrazol-4-yl)-5-(trifluoromethyl)pyridin-2(1H)-one] | < 10
6 | Cn1c(Nc2ccc(CN3CCC(F)(F)CC3)c(C(F)(F)F)c2)nc2ncc(Oc3cnn4ccncc34)c(Cl)c21 [Example I-173, 7-chloro-N-(4-((4,4-difluoropiperidin-1-yl)methyl)-3-(trifluoromethyl)phenyl)-1-methyl-6-(pyrazolo[1,5-a]pyrazin-3-yloxy)-1H-imidazo[4,5-b]pyridin-2-amine] | 10 to 50
7 | CO[C@H]1CCN(Cc2ccc(Nc3nc4ncc(Oc5cnn6ccncc56)c(Cl)c4n3C)cc2C(F)(F)F)C1 [Example I-175, (S)-7-chloro-N-(4-((3-methoxypyrrolidin-1-yl)methyl)-3-(trifluoromethyl)phenyl)-1-methyl-6-(pyrazolo[1,5-a]pyrazin-3-yloxy)-1H-imidazo[4,5-b]pyridin-2-amine] | 10 to 50
8 | CO[C@@H]1CCN(Cc2ccc(Nc3nc4ncc(Oc5cnn6ccncc56)c(Cl)c4n3C)cc2C(F)(F)F)C1 [Example I-176, (R)-7-chloro-N-(4-((3-methoxypyrrolidin-1-yl)methyl)-3-(trifluoromethyl)phenyl)-1-methyl-6-(pyrazolo[1,5-a]pyrazin-3-yloxy)-1H-imidazo[4,5-b]pyridin-2-amine] | < 10
9 | Cn1cc(C(F)(F)F)cc(Nc2nc3ncc(Oc4cnn5ccncc45)c(Cl)c3n2C)c1=O [Example I-177, 3-((7-chloro-1-methyl-6-(pyrazolo[1,5-a]pyrazin-3-yloxy)-1H-imidazo[4,5-b]pyridin-2-yl)amino)-1-methyl-5-(trifluoromethyl)pyridin-2(1H)-one] | < 10
10 | CNc1nccn2ncc(Oc3cnc4nc(Nc5cc(C(F)(F)F)cn(C6CC6)c5=O)n(C)c4c3Cl)c12 [Example I-178, 3-((7-chloro-1-methyl-6-((4-(methylamino)pyrazolo[1,5-a]pyrazin-3-yl)oxy)-1H-imidazo[4,5-b]pyridin-2-yl)amino)-1-cyclopropyl-5-(trifluoromethyl)pyridin-2(1H)-one] | < 10
11 | CNc1nccn2ncc(Oc3cnc4nc(Nc5cc(C(F)(F)F)cn(C)c5=O)n(C)c4c3C#N)c12 [Example I-193, 1-methyl-2-((1-methyl-2-oxo-5-(trifluoromethyl)-1,2-dihydropyridin-3-yl)amino)-6-((4-(methylamino)pyrazolo[1,5-a]pyrazin-3-yl)oxy)-1H-imidazo[4,5-b]pyridine-7-carbonitrile] | < 10
12 | Cn1c(Nc2cc(CN3CCOCC3)cc(C(F)(F)F)c2)nc2ncc(Oc3cnn4ccncc34)c(Cl)c21 [Example I-194, 7-chloro-1-methyl-N-(3-(morpholinomethyl)-5-(trifluoromethyl)phenyl)-6-(pyrazolo[1,5-a]pyrazin-3-yloxy)-1H-imidazo[4,5-b]pyridin-2-amine] | < 10
13 | Cn1c(Nc2cc(CN3CC(F)C3)cc(C(F)(F)F)c2)nc2ncc(Oc3cnn4ccncc34)c(Cl)c21 [Example I-195, 7-chloro-N-(3-((3-fluoroazetidin-1-yl)methyl)-5-(trifluoromethyl)phenyl)-1-methyl-6-(pyrazolo[1,5-a]pyrazin-3-yloxy)-1H-imidazo[4,5-b]pyridin-2-amine] | < 10

Now from value to compound:

Row | Kd [nM] | SMILES
14 | < 10 | CN1CCN(c2cc(Nc3nc4ncc(Oc5cnn6ccncc56)c(Cl)c4n3C)cc(C(F)(F)F)c2)CC1 [Example I-172, 7-chloro-1-methyl-N-(3-(4-methylpiperazin-1-yl)-5-(trifluoromethyl)phenyl)-6-(pyrazolo[1,5-a]pyrazin-3-yloxy)-1H-imidazo[4,5-b]pyridin-2-amine]
15 | 10 to 50 | Cn1c(Nc2ccc(CN3CCCC(F)(F)C3)c(C(F)(F)F)c2)nc2ncc(Oc3cnn4ccncc34)c(Cl)c21 [Example I-174, 7-chloro-N-(4-((3,3-difluoropiperidin-1-yl)methyl)-3-(trifluoromethyl)phenyl)-1-methyl-6-(pyrazolo[1,5-a]pyrazin-3-yloxy)-1H-imidazo[4,5-b]pyridin-2-amine]
16 | < 10 | CNc1nccn2ncc(Oc3cnc4nc(Nc5cc(C(F)(F)F)cn(-c6cccnc6)c5=O)n(C)c4c3Cl)c12 [Example I-179, 3-((7-chloro-1-methyl-6-((4-(methylamino)pyrazolo[1,5-a]pyrazin-3-yl)oxy)-1H-imidazo[4,5-b]pyridin-2-yl)amino)-5-(trifluoromethyl)-2H-[1,3′-bipyridin]-2-one]
17 | < 10 | Cc1cn(-c2cc(Nc3nc4ncc(Oc5cnn6ccncc56)c(Cl)c4n3C)cc(C(F)(F)F)c2)cn1 [Example I-180, 7-chloro-1-methyl-N-(3-(4-methyl-1H-imidazol-1-yl)-5-(trifluoromethyl)phenyl)-6-(pyrazolo[1,5-a]pyrazin-3-yloxy)-1H-imidazo[4,5-b]pyridin-2-amine]
18 | < 10 | CO[C@H]1CCN(Cc2cc(Nc3nc4ncc(Oc5cnn6ccncc56)c(Cl)c4n3C)cc(C(F)(F)F)c2)C1 [Example I-181, (S)-7-chloro-N-(3-((3-methoxypyrrolidin-1-yl)methyl)-5-(trifluoromethyl)phenyl)-1-methyl-6-(pyrazolo[1,5-a]pyrazin-3-yloxy)-1H-imidazo[4,5-b]pyridin-2-amine]
19 | < 10 | CO[C@@H]1CCN(Cc2cc(Nc3nc4ncc(Oc5cnn6ccncc56)c(Cl)c4n3C)cc(C(F)(F)F)c2)C1 [Example I-182, (R)-7-chloro-N-(3-((3-methoxypyrrolidin-1-yl)methyl)-5-(trifluoromethyl)phenyl)-1-methyl-6-(pyrazolo[1,5-a]pyrazin-3-yloxy)-1H-imidazo[4,5-b]pyridin-2-amine]
20 | < 10 | Cn1c(Nc2cc(C(F)(F)F)cn(CCO)c2=O)nc2ncc(Oc3cnn4ccc(N5CCOCC5)cc34)c(Cl)c21 [Example I-183, 3-((7-chloro-1-methyl-6-((5-morpholinopyrazolo[1,5-a]pyridin-3-yl)oxy)-1H-imidazo[4,5-b]pyridin-2-yl)amino)-1-(2-hydroxyethyl)-5-(trifluoromethyl)pyridin-2(1H)-one]
21 | 50 to 1000 | CNc1nccn2ncc(Oc3cnc4nc(Nc5ccc(CN6CCC(F)(F)C6)c(C(F)(F)F)c5)n(C)c4c3Cl)c12 [Example I-184]
22 | 10 to 50 | Cn1c(Nc2cc(C(C)(C)C)n(C3CC4(COC4)C3)n2)nc2ncc(Oc3cnn4ccncc34)c(C#N)c21 [Example I-187, 2-((5-(tert-butyl)-1-(2-oxaspiro[3.3]heptan-6-yl)-1H-pyrazol-3-yl)amino)-1-methyl-6-(pyrazolo[1,5-a]pyrazin-3-yloxy)-1H-imidazo[4,5-b]pyridine-7-carbonitrile]
23 | < 10 | CCc1cc(Nc2nc3ncc(Oc4cnn5ccncc45)c(Cl)c3n2C)cc(C(=O)N2CCC2)n1 [Example I-188, Azetidin-1-yl(4-((7-chloro-1-methyl-6-(pyrazolo[1,5-a]pyrazin-3-yloxy)-1H-imidazo[4,5-b]pyridin-2-yl)amino)-6-ethylpyridin-2-yl)methanone]
24 | 10 to 50 | CNc1nccn2ncc(Oc3cnc4nc(Nc5ccc(CN6CC(F)C6)c(C(F)(F)F)c5)n(C)c4c3Cl)c12 [Example I-189, 7-chloro-N-(4-((3-fluoroazetidin-1-yl)methyl)-3-(trifluoromethyl)phenyl)-1-methyl-6-((4-(methylamino)pyrazolo[1,5-a]pyrazin-3-yl)oxy)-1H-imidazo[4,5-b]pyridin-2-amine]
25 | 10 to 50 | CNc1nccn2ncc(Oc3cnc4nc(Nc5ccc(CN6CC(OC)C6)c(C(F)(F)F)c5)n(C)c4c3Cl)c12 [Example I-190, 7-chloro-N-(4-((3-methoxyazetidin-1-yl)methyl)-3-(trifluoromethyl)phenyl)-1-methyl-6-((4-(methylamino)pyrazolo[1,5-a]pyrazin-3-yl)oxy)-1H-imidazo[4,5-b]pyridin-2-amine]
26 | 10 to 50 | CNc1nccn2ncc(Oc3cnc4nc(Nc5ccc(CN6CC[C@H](OC)C6)c(C(F)(F)F)c5)n(C)c4c3Cl)c12 [Example I-191, (S)-7-chloro-N-(4-((3-methoxypyrrolidin-1-yl)methyl)-3-(trifluoromethyl)phenyl)-1-methyl-6-((4-(methylamino)pyrazolo[1,5-a]pyrazin-3-yl)oxy)-1H-imidazo[4,5-b]pyridin-2-amine]
27 | 10 to 50 | CNc1nccn2ncc(Oc3cnc4nc(Nc5ccc(CN6CC[C@@H](OC)C6)c(C(F)(F)F)c5)n(C)c4c3Cl)c12 [Example I-192]
